Results as given in publication PMC9147192, “Small Molecule Arranged Thermal Proximity Coaggregation (smarTPCA)—A Novel Approach to Characterize Protein–Protein Interactions in Living Cells by Similar Isothermal Dose–Responses” (International Journal of Molecular Sciences, 2022).

Tests used:
DDX18 = biological target: T1, DDX18 (Homo sapiens, UniProt Q9NVP1); test: TPP-CCR in living HL-60 cells; type: cell-based
T1 construct: endogenous in cells; host or cells: HL-60 (ATCC CCL-240)
T1 sequence (Q9NVP1 1-670): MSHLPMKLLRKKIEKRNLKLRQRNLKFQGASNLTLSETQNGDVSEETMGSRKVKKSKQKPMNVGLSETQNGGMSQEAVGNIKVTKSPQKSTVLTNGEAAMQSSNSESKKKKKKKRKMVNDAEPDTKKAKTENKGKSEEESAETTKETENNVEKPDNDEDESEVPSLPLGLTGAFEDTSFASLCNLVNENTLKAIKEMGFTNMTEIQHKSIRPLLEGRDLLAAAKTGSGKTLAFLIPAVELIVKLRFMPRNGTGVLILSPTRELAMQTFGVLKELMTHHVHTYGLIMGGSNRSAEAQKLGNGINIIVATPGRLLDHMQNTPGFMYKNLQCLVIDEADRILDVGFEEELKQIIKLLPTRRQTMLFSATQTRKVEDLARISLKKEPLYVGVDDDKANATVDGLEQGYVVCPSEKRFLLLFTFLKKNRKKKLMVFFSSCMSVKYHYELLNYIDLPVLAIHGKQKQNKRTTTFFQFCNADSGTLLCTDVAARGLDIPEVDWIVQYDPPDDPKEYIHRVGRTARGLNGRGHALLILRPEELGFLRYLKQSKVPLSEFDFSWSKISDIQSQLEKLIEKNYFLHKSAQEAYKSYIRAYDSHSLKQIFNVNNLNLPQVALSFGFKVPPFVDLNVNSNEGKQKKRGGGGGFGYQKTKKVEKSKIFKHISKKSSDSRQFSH
Source text: (§1) Therefore, we performed TPP with compound concentration range (TPP-CCR) experiments according to published procedures. In brief, after preparing tryptic peptides from the non-denatured protein fractions (used for immunoblotting in the previous sections) applying the SP3 method, the peptides were labeled using TMT10plex, coding for inhibitor concentration, and the samples belonging to a TMT set were combined, offline high-pH fractionated, and analyzed by MS.
(§2) HL-60 cells were expanded as described above for CETSA and TPP-TR to 1.25 million cells per milliliter. […] A number of 2.5 million cells in 2 mL of medium were added to each tube and incubated (1 h, 37 °C). After centrifugation (300 rcf, 3 min, r.t.) and removing all of the supernating culture medium, the cells were washed once with 2 mL and once with 0.5 mL PBS (r.t.) by gently resuspending the cells, followed by centrifugation (300 rcf, 3 min, r.t.) and the complete removal of the supernatants.
(§3) After transferring the cells from the 2 mL Eppendorf tubes into correspondingly labeled PCR tubes (tube strips) using 100 µL of ice-cold PBS supplemented with protease inhibitors for resuspending the cells, the samples were further processed as described above for CETSA and TPP-TR, however, by applying a single treatment temperature of 51 °C.
(§4) For each sample set comprising ten compound concentration range samples, a same volume of the cell extracts containing the fraction of soluble, non-denatured proteins, corresponding to an average of 5 µg total protein, was used for further analysis. The calculated volume was respectively transferred into PCR tubes of a tube strip and supplemented with SDS sample buffer without DTT and bromophenol blue (final concentrations: 7.5% glycerol, 3% SDS, 37.5 mM Tris/HCl pH 7.0) and ddH2O to a final volume of 10 µL, respectively. Reduction and alkylation were performed by addition of 2.5 µL 100 mM dithiothreitol (DTT; incubation: 20 min, 56 °C, 1000 rpm in an Eppendorf ThermoMixer C, covering the tubes with aluminum foil to minimize condensation in the lids) and 3.33 µL 300 mM iodoacetamide (IAA; incubation: 15 min, r.t., in the dark without shaking), as well as 2.5 µL 100 mM DTT (incubation: 15 min, r.t., without shaking; quenching of excess of IAA). […] The beads were collected and washed (3× 200 µL 80% ethanol p.a. in HPLC-MS grade water, 1 × 200 µL acetonitrile (ACN; HPLC gradient grade)) using a device for handling of magnetic particles [patent US20100200405A1]. The ACN of the last washing step was completely removed by aspiration without letting the beads dry out.
(§5) Tryptic digest was performed on-bead by resuspending (use of an ultrasound bath may be required) the beads in 20 µL 50 mM TEAB in HPLC-MS grade water containing 0.1 µg Trypsin/Lys-C mix and 16.5 h incubation at 37 °C and 1000 rpm (Eppendorf ThermoMixer C, covering the tubes with aluminum foil to minimize condensation in the lids). Tryptic fragmentation of proteins was optimized by addition of another 0.1 µg of Trypsin/Lys-C mix in 2 µL 50 mM TEAB and 4 h incubation at 37 °C and 1000 rpm. After centrifugation for about 1 min in a table top centrifuge and magnetic concentration and retention of the beads at the inner tube wall, the supernatants containing the peptides were transferred into new PCR tubes (of tube strips) and were stored at −80 °C. The beads were discarded.
(§6) Half of the peptide samples (11 µL containing about 2.5 µg peptides) were transferred into new PCR tubes (of tube strips) and allowed to equilibrate to r.t. TMT labeling reagents were reconstituted as described for the TPP-TR samples, and 1 µL each was added to the reconstituted peptides according to the following scheme and homogenized immediately by aspiration and dispensing:
(§7) Peptide separation was performed as described above for the analysis of TPP-TR samples. […]

PDIA6 = biological target: T2, PDIA6 (Homo sapiens, UniProt Q15084); test: TPP-CCR in living HL-60 cells; type: cell-based
T2 construct: endogenous in cells; host or cells: HL-60 (ATCC CCL-240)
T2 sequence (Q15084 20-440): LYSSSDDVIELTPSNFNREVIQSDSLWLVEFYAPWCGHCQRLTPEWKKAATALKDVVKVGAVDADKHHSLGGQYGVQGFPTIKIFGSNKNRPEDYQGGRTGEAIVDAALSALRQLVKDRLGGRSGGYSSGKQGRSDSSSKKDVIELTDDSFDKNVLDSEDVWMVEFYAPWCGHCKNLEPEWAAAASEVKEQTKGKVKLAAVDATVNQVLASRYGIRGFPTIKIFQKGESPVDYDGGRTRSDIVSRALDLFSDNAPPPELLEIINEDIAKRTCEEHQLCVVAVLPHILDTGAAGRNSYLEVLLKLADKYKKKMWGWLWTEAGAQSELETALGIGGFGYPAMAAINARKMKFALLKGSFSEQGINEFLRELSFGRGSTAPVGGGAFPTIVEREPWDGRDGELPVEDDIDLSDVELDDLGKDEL
Source text: as §1, §2, §3, §4, §5, §6, §7

[1] = living HL-60 cells, […] °C, TMT-MS

In the case of `Cc1cnc(Nc2ccc(F)cc2Cl)nc1-c1c[nH]c(C(=O)N[C@H](CO)c2cccc(Cl)c2)c1` [ERK 11e], the Hill slope (DDX18; TPP-CCR, living cells, DDX18) is reported as 0.20, the “Hill slope (DDX18)” value (DDX18; [1]) is reported as 0.20 and the EC50 (DDX18; living HL-60 cells, […] °C, TMT-MS, read-out: pEC50 (DDX18) (converted)) is reported as 0.2 µM. The Hill slope (PDIA6; TPP-CCR, living cells, PDIA6) was 1.33, the “Hill slope (PDIA6)” value (PDIA6; [1]) was 1.33 and the EC50 (PDIA6; living HL-60 cells, […] °C, TMT-MS, read-out: pEC50 (PDIA6) (converted)) was 3.55 µM.
